Read-outs that look alike come from different tables or passages of the source.
Columns and labels:
Assay in all cases: HotSpot kinase profiling
Assay type in all cases: biochemical
EPHA1 = target: T1, EPHA1 (Homo sapiens, UniProt P21709)
T1 construct: purchased Reaction Biology Corp
T1 sequence (P21709 26-976): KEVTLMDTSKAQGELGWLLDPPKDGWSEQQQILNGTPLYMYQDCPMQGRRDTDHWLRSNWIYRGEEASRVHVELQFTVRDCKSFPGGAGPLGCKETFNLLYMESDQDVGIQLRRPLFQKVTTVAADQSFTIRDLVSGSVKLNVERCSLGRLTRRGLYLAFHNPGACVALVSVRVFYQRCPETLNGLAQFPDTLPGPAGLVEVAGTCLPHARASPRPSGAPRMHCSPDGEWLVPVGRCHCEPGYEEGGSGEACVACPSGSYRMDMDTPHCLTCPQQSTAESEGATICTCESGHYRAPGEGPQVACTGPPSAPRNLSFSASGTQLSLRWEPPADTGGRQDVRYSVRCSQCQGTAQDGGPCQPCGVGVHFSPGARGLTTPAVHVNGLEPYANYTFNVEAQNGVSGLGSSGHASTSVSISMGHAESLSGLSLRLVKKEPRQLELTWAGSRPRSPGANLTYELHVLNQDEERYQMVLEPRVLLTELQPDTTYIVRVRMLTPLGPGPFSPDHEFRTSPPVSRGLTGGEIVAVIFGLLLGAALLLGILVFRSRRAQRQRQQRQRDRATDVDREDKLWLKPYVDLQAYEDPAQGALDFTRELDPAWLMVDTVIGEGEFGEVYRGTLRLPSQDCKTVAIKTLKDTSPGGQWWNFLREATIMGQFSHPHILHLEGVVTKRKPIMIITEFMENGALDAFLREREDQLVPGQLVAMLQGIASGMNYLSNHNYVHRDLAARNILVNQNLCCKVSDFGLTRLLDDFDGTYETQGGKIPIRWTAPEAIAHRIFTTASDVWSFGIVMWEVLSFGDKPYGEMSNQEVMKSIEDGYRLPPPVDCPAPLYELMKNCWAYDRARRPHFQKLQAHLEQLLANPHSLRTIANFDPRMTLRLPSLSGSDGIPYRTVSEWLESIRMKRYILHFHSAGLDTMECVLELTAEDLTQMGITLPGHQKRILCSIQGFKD
Method in brief: (§1)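 Activity is measured by radiolabel transfer captured on P81 filters after a 2 h room-temperature reaction of kinase, substrate and cofactors. Values are percent inhibition against DMSO.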

MARK4 = target: T2, MARK4 (Homo sapiens, UniProt Q96L34)
T2 construct: purchased Reaction Biology Corp
T2 sequence (Q96L34 1-752): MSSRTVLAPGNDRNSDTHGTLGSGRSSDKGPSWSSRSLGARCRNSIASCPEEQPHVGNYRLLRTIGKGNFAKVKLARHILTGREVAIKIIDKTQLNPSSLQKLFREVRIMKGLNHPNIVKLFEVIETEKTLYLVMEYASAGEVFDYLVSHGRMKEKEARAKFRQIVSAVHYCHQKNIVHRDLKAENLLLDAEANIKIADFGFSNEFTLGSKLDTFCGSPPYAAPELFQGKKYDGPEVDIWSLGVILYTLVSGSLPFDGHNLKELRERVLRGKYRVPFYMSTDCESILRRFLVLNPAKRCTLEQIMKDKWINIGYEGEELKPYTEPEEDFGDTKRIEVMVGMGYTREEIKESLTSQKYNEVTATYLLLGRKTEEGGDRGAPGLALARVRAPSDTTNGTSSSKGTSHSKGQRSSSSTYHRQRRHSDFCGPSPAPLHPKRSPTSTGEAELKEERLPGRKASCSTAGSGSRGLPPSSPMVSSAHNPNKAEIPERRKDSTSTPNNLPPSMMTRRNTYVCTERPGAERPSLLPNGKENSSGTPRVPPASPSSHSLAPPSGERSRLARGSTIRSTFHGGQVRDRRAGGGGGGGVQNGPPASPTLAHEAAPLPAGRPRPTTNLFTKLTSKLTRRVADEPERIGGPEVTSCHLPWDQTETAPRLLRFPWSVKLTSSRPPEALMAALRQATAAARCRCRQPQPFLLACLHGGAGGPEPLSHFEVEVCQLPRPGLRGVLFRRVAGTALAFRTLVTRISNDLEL
Method in brief: as §1

MLK3/MAP3K11 = target: T3, MLK3/MAP3K11 (Homo sapiens, UniProt Q16584)
T3 construct: purchased Reaction Biology Corp
T3 sequence (Q16584 whole entry): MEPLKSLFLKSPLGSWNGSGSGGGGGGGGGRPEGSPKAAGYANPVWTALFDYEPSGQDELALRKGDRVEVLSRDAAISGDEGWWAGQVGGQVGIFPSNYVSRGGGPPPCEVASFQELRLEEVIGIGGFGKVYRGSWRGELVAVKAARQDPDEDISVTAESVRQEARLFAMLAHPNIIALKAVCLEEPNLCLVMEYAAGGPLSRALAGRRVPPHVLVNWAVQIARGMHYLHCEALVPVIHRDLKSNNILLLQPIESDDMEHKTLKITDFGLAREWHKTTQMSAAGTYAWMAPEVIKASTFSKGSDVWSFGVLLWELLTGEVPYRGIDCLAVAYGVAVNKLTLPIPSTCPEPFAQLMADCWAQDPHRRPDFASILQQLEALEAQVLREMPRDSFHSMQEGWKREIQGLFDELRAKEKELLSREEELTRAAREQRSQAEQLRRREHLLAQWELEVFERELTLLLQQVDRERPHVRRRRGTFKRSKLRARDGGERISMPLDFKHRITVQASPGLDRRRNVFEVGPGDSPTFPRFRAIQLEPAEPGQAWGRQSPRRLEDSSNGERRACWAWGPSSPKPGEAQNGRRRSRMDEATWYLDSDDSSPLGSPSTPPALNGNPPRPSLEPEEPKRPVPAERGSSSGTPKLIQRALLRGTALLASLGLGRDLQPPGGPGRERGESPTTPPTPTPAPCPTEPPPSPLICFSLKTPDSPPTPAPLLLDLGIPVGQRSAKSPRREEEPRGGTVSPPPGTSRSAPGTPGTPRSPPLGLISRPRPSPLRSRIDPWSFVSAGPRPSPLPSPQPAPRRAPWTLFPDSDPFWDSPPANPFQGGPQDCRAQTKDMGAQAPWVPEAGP
Method in brief: as §1

WEE1 = target: T4, WEE1 (Homo sapiens, UniProt P30291)
T4 construct: purchased Reaction Biology Corp
T4 sequence (P30291 whole entry): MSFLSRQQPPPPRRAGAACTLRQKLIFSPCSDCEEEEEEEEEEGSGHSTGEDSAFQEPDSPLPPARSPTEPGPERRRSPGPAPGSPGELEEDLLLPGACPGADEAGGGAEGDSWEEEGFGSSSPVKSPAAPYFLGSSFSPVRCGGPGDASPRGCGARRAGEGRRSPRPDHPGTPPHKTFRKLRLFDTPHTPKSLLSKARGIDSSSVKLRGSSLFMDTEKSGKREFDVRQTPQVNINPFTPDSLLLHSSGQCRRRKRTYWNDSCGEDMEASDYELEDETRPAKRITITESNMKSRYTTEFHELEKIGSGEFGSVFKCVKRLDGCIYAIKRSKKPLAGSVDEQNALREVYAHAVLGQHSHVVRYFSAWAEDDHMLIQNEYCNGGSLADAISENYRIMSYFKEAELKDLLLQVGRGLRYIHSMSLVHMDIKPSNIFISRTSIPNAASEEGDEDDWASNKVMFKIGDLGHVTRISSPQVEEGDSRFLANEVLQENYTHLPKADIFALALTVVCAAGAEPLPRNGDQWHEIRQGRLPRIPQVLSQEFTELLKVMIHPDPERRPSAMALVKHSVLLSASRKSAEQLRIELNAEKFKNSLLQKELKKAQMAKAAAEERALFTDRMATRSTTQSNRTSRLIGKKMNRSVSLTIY
Method in brief: as §1

PKCb2 = target: T5, PKCb2 (Homo sapiens, UniProt P05771)
T5 construct: purchased Reaction Biology Corp
T5 sequence (P05771 1-673 isoform P05771-2): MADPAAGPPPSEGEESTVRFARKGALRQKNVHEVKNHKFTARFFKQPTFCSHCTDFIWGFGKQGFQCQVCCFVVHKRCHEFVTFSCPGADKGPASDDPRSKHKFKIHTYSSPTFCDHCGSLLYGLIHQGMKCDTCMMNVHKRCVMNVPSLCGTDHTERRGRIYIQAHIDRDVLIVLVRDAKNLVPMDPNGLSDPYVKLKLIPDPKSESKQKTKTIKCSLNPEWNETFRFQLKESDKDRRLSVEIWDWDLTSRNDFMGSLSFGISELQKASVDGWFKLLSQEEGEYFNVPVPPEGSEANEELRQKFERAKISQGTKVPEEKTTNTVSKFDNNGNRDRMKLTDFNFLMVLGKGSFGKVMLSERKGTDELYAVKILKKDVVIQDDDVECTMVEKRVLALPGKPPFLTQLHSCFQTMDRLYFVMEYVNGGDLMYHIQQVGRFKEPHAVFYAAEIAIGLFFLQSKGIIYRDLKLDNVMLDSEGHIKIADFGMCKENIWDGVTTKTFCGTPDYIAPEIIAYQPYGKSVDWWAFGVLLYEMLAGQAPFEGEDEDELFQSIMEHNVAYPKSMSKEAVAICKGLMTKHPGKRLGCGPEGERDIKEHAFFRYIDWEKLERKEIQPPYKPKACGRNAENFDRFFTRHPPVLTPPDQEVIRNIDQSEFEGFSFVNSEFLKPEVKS
Method in brief: as §1

[1] = read-out: % Enzyme Activity (relative to DMSO controls) Run 1
[2] = read-out: % Enzyme Activity (relative to DMSO controls) Run 2

## C=CC(=O)Nc1cccc(Nc2nc(Nc3ccc(OCCOC)c(F)c3)ncc2F)c1 [Compound 2]
EPHA1
  inhibition at 3 µM: -0.24%
EPHA1; [1]
  remaining activity at 3 µM: 99.5%
EPHA1; [2]
  remaining activity at 3 µM: 101%
MARK4
  inhibition at 3 µM: 18.5%
MARK4; [1]
  remaining activity at 3 µM: 82.2%
MARK4; [2]
  remaining activity at 3 µM: 80.9%
MLK3/MAP3K11
  inhibition at 3 µM: 73.4%
MLK3/MAP3K11; [1]
  remaining activity at 3 µM: 27.9%
MLK3/MAP3K11; [2]
  remaining activity at 3 µM: 25.2%
WEE1
  inhibition at 3 µM: 26%
WEE1; [1]
  remaining activity at 3 µM: 73.1%
WEE1; [2]
  remaining activity at 3 µM: 74.9%
PKCb2
  inhibition at 3 µM: 50.5%
PKCb2; [1]
  remaining activity at 3 µM: 50.1%
PKCb2; [2]
  remaining activity at 3 µM: 48.9%

Source: patent US9492471B2, “Methods of treating a disease or disorder associated with Bruton'S Tyrosine Kinase” (Celgene Avilomics Research, Inc., priority 2013, dated 2016)
